Article PMC6018958 (ACS Omega, 2017)

Key:
EGFR^WT [1] = molecular target: T1, EGFR^WT (Homo sapiens, UniProt P00533); assay: Kinetic characterization; type: biochemical
EGFR^L858R [2] = molecular target: T2, EGFR^L858R (Homo sapiens, UniProt P00533, L858R); assay: Kinetic characterization; type: biochemical
EGFR^L858R/T790M [3] = molecular target: T3, EGFR^L858R/T790M (Homo sapiens, UniProt P00533, L858R/T790M); assay: biochemical
EGFR^L858R/T790M [4] = molecular target: T3, EGFR^L858R/T790M; assay: Kinetic characterization; type: biochemical
EGFR^WT [5] = molecular target: T1, EGFR^WT; assay: biochemical
EGFR^T790M = EGFR^T790M (Homo sapiens, UniProt P00533, T790M); assay: SelectScreen kinase profiling; type: biochemical
EGFR^L858R/T790M [6] = molecular target: T3, EGFR^L858R/T790M; assay: SelectScreen kinase profiling
[7] = tested on: kinases that harbor a cysteine comparable to C797 in the hinge region; assay: SelectScreen kinase profiling; type: biochemical; settings: compound concentration 1 μM; almost all cysteine-containing kinases (Table S1)
EGFR^L858R [8] = molecular target: T2, EGFR^L858R; assay: biochemical

T3 sequence (P00533 25-1210 T790M/L858R): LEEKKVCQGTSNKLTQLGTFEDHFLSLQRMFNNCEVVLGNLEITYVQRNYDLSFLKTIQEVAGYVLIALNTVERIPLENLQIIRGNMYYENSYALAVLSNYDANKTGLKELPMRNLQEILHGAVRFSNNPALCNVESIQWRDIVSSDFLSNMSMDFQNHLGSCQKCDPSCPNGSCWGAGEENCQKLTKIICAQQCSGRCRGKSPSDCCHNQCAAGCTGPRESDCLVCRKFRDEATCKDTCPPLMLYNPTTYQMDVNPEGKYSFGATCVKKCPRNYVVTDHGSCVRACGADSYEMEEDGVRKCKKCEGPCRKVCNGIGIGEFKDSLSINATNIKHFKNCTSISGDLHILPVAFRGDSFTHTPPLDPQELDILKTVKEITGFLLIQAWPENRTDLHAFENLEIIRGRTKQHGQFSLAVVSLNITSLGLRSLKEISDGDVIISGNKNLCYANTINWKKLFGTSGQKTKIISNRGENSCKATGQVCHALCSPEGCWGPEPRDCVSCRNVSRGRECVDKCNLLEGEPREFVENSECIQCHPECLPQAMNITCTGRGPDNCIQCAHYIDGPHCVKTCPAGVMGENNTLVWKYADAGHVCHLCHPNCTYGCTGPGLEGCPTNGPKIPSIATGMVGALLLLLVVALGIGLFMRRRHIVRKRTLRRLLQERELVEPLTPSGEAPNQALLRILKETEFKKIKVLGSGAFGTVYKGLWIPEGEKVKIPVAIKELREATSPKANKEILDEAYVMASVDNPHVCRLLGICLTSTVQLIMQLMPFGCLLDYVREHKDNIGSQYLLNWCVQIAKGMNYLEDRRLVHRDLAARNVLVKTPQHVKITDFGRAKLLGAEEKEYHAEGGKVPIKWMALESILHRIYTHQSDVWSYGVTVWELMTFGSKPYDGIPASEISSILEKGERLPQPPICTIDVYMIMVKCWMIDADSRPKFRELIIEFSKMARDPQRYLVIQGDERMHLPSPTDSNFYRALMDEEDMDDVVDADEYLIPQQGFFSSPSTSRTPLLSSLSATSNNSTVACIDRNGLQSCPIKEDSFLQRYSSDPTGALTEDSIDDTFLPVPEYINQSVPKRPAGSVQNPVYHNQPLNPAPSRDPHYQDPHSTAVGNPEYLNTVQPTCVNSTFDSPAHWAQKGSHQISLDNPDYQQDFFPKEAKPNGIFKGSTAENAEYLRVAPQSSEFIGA
T1 sequence (P00533 25-1210): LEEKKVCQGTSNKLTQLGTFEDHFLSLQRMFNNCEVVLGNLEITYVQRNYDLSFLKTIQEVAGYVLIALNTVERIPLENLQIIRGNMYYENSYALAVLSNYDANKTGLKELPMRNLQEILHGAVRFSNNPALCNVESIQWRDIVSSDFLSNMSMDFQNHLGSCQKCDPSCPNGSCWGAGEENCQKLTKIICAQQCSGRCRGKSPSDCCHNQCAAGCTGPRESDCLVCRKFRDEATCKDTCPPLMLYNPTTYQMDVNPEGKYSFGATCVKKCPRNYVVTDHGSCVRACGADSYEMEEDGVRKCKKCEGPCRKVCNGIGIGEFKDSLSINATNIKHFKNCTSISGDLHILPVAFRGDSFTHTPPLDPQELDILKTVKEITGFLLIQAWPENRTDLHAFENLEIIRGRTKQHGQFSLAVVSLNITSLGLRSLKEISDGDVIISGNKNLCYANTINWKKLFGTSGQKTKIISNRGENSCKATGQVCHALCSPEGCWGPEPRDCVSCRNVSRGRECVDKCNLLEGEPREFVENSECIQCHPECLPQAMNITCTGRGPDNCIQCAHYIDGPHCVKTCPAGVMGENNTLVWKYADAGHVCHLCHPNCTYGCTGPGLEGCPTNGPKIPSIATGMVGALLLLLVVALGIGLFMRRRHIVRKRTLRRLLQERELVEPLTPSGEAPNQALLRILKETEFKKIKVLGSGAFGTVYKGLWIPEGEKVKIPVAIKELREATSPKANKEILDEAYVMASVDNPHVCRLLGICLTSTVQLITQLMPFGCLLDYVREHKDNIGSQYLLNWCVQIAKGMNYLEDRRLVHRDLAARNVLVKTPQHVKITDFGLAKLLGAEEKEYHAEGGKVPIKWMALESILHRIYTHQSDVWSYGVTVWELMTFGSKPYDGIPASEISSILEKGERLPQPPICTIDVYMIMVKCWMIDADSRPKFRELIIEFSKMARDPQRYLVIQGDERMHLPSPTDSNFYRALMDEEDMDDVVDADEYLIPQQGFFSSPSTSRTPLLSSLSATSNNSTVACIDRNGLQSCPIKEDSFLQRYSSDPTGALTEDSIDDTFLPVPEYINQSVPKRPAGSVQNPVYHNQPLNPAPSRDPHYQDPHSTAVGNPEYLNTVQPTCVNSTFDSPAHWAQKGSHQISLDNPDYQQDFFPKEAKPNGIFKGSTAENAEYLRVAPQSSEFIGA
T2 sequence (P00533 25-1210 L858R): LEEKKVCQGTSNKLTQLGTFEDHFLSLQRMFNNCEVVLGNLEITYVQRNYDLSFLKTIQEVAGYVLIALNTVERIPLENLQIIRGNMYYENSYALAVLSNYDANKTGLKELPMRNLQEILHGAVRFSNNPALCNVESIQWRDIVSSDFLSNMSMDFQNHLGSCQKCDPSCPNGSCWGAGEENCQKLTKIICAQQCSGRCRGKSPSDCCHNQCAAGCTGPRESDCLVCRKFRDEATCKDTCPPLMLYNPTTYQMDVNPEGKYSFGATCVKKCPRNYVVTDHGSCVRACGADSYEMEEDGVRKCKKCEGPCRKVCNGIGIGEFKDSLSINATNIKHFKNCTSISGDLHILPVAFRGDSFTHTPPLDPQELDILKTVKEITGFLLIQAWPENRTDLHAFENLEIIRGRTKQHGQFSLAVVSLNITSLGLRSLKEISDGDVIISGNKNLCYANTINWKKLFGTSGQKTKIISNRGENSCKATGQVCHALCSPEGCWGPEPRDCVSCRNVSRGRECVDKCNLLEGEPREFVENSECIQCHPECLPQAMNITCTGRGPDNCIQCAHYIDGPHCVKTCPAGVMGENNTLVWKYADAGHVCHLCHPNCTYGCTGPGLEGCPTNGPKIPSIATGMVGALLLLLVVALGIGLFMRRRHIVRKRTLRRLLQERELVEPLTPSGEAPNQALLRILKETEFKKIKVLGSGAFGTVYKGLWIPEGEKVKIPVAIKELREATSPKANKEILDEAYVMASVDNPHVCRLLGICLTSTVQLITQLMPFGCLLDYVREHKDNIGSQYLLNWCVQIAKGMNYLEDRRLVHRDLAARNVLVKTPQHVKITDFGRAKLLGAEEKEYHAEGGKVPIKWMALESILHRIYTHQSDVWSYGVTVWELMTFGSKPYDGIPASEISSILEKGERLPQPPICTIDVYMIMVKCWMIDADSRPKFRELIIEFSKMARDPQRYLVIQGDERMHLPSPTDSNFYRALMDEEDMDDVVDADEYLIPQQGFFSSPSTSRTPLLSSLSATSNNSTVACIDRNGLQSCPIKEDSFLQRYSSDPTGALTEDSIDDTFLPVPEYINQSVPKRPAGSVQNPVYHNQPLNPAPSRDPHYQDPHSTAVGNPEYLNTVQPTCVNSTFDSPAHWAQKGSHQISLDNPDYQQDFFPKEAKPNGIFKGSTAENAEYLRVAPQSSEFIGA
Chain of EGFR^T790M (P00533 25-1210 T790M): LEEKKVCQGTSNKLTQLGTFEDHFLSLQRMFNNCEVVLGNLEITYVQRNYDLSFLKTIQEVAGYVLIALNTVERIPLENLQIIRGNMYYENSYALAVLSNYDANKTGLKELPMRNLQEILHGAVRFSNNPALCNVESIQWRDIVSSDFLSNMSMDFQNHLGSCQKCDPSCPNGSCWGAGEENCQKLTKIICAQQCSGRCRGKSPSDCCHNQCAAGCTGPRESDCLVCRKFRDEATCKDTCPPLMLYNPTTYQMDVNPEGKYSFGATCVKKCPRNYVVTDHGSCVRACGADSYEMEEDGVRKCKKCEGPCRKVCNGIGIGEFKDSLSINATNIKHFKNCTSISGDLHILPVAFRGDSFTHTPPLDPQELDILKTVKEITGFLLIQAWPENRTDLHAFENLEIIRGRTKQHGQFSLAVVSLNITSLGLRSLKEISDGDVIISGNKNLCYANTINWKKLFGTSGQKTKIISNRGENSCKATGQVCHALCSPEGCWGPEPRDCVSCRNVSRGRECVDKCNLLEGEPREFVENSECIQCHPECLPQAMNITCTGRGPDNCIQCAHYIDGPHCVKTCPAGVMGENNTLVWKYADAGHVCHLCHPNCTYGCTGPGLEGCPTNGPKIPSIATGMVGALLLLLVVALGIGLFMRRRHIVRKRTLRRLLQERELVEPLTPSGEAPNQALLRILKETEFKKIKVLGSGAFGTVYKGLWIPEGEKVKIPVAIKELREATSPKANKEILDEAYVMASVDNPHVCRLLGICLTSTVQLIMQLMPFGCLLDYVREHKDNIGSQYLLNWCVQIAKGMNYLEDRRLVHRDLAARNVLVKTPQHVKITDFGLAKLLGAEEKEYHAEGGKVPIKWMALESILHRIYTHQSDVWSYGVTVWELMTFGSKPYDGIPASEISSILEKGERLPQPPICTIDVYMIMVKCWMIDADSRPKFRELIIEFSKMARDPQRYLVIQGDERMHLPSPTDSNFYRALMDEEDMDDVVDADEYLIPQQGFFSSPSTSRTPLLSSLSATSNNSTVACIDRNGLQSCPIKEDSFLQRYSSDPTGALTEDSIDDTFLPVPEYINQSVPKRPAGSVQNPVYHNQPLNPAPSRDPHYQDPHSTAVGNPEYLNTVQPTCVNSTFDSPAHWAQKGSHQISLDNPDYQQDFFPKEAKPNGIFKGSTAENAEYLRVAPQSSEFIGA

SMILES	Ki (EGFR^WT [1])	kinact (EGFR^WT [1])	kinact/KI (EGFR^WT [1])	Ki (EGFR^L858R [2])	kinact (EGFR^L858R [2])	kinact/KI (EGFR^L858R [2])	IC50 (EGFR^L858R/T790M [3])	Ki (EGFR^L858R/T790M [4])	kinact (EGFR^L858R/T790M [4])	kinact/KI (EGFR^L858R/T790M [4])	IC50 (EGFR^WT [5])	inhibition at 1 µM (EGFR^T790M)	inhibition at 1 µM (EGFR^L858R/T790M [6])	inhibition [7]	IC50 (EGFR^L858R [8])
N#C/C(=C\C1CC1)C(=O)N1CCC[C@@H](n2nc(-c3cccc4ccccc34)c3c(N)ncnc32)C1 [1c, (R,E)-2-(3-(4-Amino-3-(naphthalen-1-yl)-1H-pyrazolo[3,4-d]pyrimidin-1-yl)piperidine-1-carbonyl)-3-cyclopropylacrylonitrile]	64 ± 1 nM	0.0005 s⁻¹	10000 ± 10000 M⁻¹ s⁻¹	14 ± 2 nM	0.000667 s⁻¹	680000 ± 250000 M⁻¹ s⁻¹	80 ± 51 nM	15 ± 3 nM	0.00183 s⁻¹	730000 ± 160000 M⁻¹ s⁻¹	102 ± 75 nM				
N#C/C(=C\C1CC1)C(=O)N1CCC[C@@H](n2nc(-c3cnc4[nH]ccc4c3)c3c(N)ncnc32)C1 [1d, (R,E)-2-(3-(4-Amino-3-(1H-pyrrolo[2,3-b]pyridin-5-yl)-1H-pyrazolo[3,4-d]pyrimidin-1-yl)piperidine-1-carbonyl)-3-cyclopropylacrylonitrile]	265 ± 1 nM	0.000667 s⁻¹	10000 ± 10000 M⁻¹ s⁻¹	37 ± 6 nM	0.003 s⁻¹	200000 ± 10000 M⁻¹ s⁻¹	20 ± 13 nM	51 ± 2 nM	0.00283 s⁻¹	50000 ± 20000 M⁻¹ s⁻¹	96 ± 26 nM	~90%	~90%	more than 50%	10 ± 8 nM
N#C/C(=C\C1CC1)C(=O)N1CCC[C@@H](n2nc(-c3cccc(C(F)(F)F)c3)c3c(N)ncnc32)C1 [1b, (R,E)-2-(3-(4-Amino-3-(3-(trifluoromethyl)phenyl)-1H-pyrazolo[3,4-d]pyrimidin-1-yl)piperidine-1-carbonyl)-3-cyclopropylacrylonitrile]							2540 ± 420 nM				> 10000 nM				385 ± 207 nM
N#C/C(=C\C1CC1)C(=O)N1CCC[C@@H](n2nc(-c3ccccc3)c3c(N)ncnc32)C1 [1a, (R,E)-2-(3-(4-Amino-3-phenyl-1H-pyrazolo[3,4-d]pyrimidin-1-yl)piperidine-1-carbonyl)-3-cyclopropylacrylonitrile]							4540 ± 543 nM				5380 ± 3890 nM				229 ± 62 nM
Cn1cc(-c2nn([C@@H]3CCCN(C(=O)/C(C#N)=C/C4CC4)C3)c3ncnc(N)c23)c2ccccc21 [1e, (R,E)-2-(3-(4-Amino-3-(1-methyl-1H-indol-3-yl)-1H-pyrazolo[3,4-d]pyrimidin-1-yl)piperidine-1-carbonyl)-3-cyclopropylacrylonitrile]	1670 ± 450 nM	0.00283 s⁻¹	10000 ± 10000 M⁻¹ s⁻¹	79 ± 9 nM	0.002 s⁻¹	260000 ± 70000 M⁻¹ s⁻¹	213 ± 49 nM	83 ± 10 nM	0.00217 s⁻¹	360000 ± 20000 M⁻¹ s⁻¹	338 ± 69 nM				85 ± 34 nM
